The source of these data is paper PMC7948467, “Discovery of an ultraspecific triuret hydrolase (TrtA) establishes the triuret biodegradation pathway” (The Journal of Biological Chemistry, 2020).

Experiment [1] has as its target T1, TrtA (Herbaspirillum sp. BH-1, UniProt A0A2N6JFX7).
T1 construct: N-terminal 6xHis tag and thrombin site kept, pET28a, E. coli BL21(DE3), codon-optimized; subunit 24 kDa, homodimer
T1 sequence (A0A2N6JFX7 1-227): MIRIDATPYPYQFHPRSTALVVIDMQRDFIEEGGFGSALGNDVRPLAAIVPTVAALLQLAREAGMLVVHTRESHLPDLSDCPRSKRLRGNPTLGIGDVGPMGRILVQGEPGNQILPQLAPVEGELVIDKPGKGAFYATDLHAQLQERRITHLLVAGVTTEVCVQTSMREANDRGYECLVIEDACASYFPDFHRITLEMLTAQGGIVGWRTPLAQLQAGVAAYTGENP
Description: inhibition of triuret hydrolysis. It counts as biochemical. The conditions noted are these: likely competitive; Ki not determinable because biuret contains about 1 mol% triuret; inhibition only above 50 mM, where TrtA precipitates; tag state not stated.

Experiment [2] addresses T2, RhdBiuH (Rhodococcus sp. Mel, UniProt H8ZKV9, C169S).
T2 construct: recombinant
Description: X-ray crystal structure. It counts as binding. The conditions noted are these: cocrystal with biuret; active site; inactive mutant.

Experiment [3] deals with T3, CtermDelΔ7+Cleaved His-tag (Herbaspirillum sp. BH-1, UniProt A0A2N6JFX7).
T3 construct: gene trtA
Description: ammonia release, Berthelot assay. The conditions noted are these: phosphate buffer, pH 8, 25 °C. It counts as biochemical. An excerpt:
ammonia release, Berthelot assay on CtermDelΔ7+Cleaved His-tag

T2 sequence (H8ZKV9 entry or part of it C169S): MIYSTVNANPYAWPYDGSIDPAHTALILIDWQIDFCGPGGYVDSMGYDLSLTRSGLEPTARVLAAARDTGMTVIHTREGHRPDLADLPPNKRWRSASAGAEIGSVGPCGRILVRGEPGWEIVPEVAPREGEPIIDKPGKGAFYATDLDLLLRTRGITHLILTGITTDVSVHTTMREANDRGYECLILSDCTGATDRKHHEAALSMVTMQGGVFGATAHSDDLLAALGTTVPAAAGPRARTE

In the case of `NC(=O)NC(N)=O` [biuret], the “inhibition of triuret hydrolysis” value in experiment [1] is “Inhibition data suggests that biuret is a competitive inhibitor”. Besides, the X-ray crystal structure result in experiment [2] is “The cocrystal with biuret showed similar mode of binding to that of BiuH”.
For `NC(=O)NC(=O)NC(N)=O` [triuret], in experiment [3], the Km was determined as 16 ± 2 µM.
